Measurements published in patent publication US7235584B2, “Non-psychotropic cannabinoids” (Pharmos Corporation, priority 2000, dated 2007).

Tests used:
NMDA receptor = assay: [3H]MK-801 displacement radioligand binding, rat forebrain membranes
Experimental: The identification of possible recognition sites for PRS-211 analogs was carried out by measuring the ability of these PRS-211 analogs to inhibit the binding of MK-801 to rat forebrain membranes.
Brains were removed from Sprague-Dawley rats no more than 5 min after decapitation. Membrane preparations were isolated according to a procedure described previously (Eshhar et al., Brain Res. 476:57, 1989). Prior to radioligand binding measurements, endogenous glutamate present in membranes was removed from the preparation by subjecting the membranes to 3–4 successive washings in 10 mM Tris HCl pH 7.2, performed at 4° C.
The specific binding of the new analogs to NMDA receptors was determined by their ability to displace [^3H]MK-801 from NMDA receptor in rat forebrain preparations. Specifically, rat-forebrain membranes (0.1 mg) were incubated for 2 hours at room temperature with 10 nM of tritiated MK-801 and with the PRS-211 compounds at 3 doses each. Non-specific binding was determined by the use of 0.1 mM MK-801. Following the incubation, bound radioligand was separated from unbound by filtration through GF/B filters. The filters were counted in a β-counter and log of analog concentrations versus % of [^3H]MK-801 specific binding was plotted. The IC50 was calculated from this plot.
Binding of [^3H]MK-801 to membranes was carried out in the presence of 30 μM glycine and 10 μM L-glutamate. Membranes (250 μg protein) were resuspended in 50 mM tris-acetate pH 7.4 buffer and incubated with 10 nM [^3H]MK-801, either alone or in the presence of PRS-211 compounds at 0.1–100 μM concentrations for three hours at room temperature (RT). Reaction buffers used in the different radioligand binding studies contained 10% of an ethanol/Emulphor 620/deionized water mixture. The ratio (by volume) of the respective components in the mixture was 20/3/57. This mixture is required for solubilizing PRS-211 compounds at concentrations above 30 μM. Reaction volume was 1 ml. Non-specific [^3H]MK-801 binding was determined in the presence of 100 μM unlabeled MK-801.
Concentration dependence of certain PRS-211 analogs on inhibition of [^3H]MK-801 binding is illustrated in FIG. 1.

[1] = tested on: T1, nitric oxide synthase (NOS); assay: Inhibition of nitric oxide synthase, fluorimetric nitrite assay in LPS-stimulated macrophage supernatants; assay type: cell-based; conditions: macrophage cell cultures
T1 construct: endogenous in cells
T1 sequence (P35228 whole entry): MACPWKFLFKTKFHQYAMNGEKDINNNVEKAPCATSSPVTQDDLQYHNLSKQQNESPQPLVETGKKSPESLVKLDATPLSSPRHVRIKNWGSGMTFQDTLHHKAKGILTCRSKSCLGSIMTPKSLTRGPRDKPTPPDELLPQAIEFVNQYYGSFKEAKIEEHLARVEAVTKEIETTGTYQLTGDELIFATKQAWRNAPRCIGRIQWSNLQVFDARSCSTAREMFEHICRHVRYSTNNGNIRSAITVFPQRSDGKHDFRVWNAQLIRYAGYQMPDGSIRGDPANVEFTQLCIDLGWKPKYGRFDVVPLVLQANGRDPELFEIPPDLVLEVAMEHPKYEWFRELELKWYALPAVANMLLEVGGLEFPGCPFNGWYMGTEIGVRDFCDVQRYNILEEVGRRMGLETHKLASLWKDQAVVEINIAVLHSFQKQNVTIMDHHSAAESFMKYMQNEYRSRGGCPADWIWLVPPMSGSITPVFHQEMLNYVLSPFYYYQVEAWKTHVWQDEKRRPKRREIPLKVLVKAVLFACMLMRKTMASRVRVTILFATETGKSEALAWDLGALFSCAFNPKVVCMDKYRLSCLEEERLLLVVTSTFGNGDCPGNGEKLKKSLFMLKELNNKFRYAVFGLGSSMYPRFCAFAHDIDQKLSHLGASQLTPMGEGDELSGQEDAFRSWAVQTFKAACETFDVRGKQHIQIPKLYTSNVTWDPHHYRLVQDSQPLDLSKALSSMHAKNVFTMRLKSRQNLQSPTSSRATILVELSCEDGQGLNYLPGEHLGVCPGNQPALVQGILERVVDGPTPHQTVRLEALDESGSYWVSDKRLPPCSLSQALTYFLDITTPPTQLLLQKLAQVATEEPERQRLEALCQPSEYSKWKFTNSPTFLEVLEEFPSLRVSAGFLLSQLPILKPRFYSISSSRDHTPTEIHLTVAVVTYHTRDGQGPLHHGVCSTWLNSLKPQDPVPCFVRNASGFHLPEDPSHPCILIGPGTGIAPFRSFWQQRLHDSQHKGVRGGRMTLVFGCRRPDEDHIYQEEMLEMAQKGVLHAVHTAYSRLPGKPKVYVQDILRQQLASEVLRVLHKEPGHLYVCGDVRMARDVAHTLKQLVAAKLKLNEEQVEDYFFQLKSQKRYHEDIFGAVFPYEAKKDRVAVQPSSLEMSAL
Experimental: As one aspect of the anti-oxidative potential of the novel analogs they were tested for their ability to inhibit the enzyme nitric oxide synthase (NOS). This assay can also serve as another indication of the anti-inflammatory cascade, as well as the anti-oxidative mechanisms.
The final products of NOS are Nitrite (NO2) and Nitrate (NO3). The in vitro fluorimetric assay provides an accurate method for the measurement of the Nitrite, which is the majority of NO products. The principle of the fluorimetric assay is based on the addition of DAN (2,3-diaminonaphthalene) to the aliquots of the supernatants collected from macrophage cell cultures incubated with the new analogs and stimulated with LPS. Following, NaOH was added to convert Nitrite to a fluorescent compound 1(H)-naphthtriazole. The fluorescence was measured immediately in a fluorimeter using excitation wavelength of 365 nm and an emission wavelength of 450 nm.

transient MCAo in rats = assay: Transient MCAo evaluated by the staircase test; assay type: in vivo, Sprague Dawley rats; conditions: for staircase contralateral performance, pellet consumption (in words): administered 2 hours after start of MCAo
Text: The test challenges fine motor, sensory and stereognostic function of the cortex in enabling the forepaw (hand) to identify, grasp and accurately manipulate small objects such as food pellets. Loss of the ability to identify, grasp and manipulate small objects reflects a lesion of the fronto-parietal cortex and is a common and crippling deficit after stroke in humans.
The materials for this procedure are identical to those from Physiological Example 5, except for the different concentrations of PRS-211,095. The procedural differences are as follows: • Male Sprague Dawley rats, 230–270 gr (Harlan, Israel) were used. The following compounds and their respective concentrations were tested:
Dexanabinol and analogs PRS-211,095 and PRS-211,220 in PEG ethanol cosolvent 50 mg/ml. Dexanabinol, the analogs and their vehicle were diluted in Intralipid® 20% (Pharmacia) prior to drug administration.
The procedure is essentially as described in Montoya et al. (Montoya, Campbell-Hope, Pemberton and Dunnet, J. Neurosci. Meth. 36:219–228,1991) Animals were kept under mild food deprivation for 3–5 days, receiving 15-gr. food once a day (between 16:00 and 17:00) and free access to water.
In brief, the staircase box contains two rows of seven stairs in each. Two 45 mg food pellets were placed on each step. Animals were placed in the box for 15 minutes sessions. At the end of the session the number of eaten (grasped) and displaced pellets was counted and recorded. Animals were tested twice a day, 4 hours apart. The first session was performed between 8–9 AM and second between 12–13 PM. The animals were trained until they grasped (ate) at least 8 pellets from each set of stairs for two consecutive sessions. Up to one week after the end of the successful training session the animals underwent transient MCAo.
Transient MCAO was performed in essentially the same manner as described in Physiological example 5 with the following modification at step i:
Two minutes prior to thread removal rats were re-anesthetized and administered IV with Dexanabinol 5 mg/kg, analogs
PRS-211,220 or PRS-211,095 at 0.5, 2.5, 5 or 10 mg/kg or vehicle 5 ml/kg. One additional group was sham-treated.
Animals were allowed to recover from the surgery for five days. The mild food deprivation was re-employed during the days following the ischemic insult. They were tested in the staircase box using the above method for 9–12 days. Animals were weighed twice a week during this period.
At the end of the evaluation period, animals were euthanized with pentobarbitone 100 mg/kg IP. The animals were perfused through the heart with heparinized 4% formaldehyde solution in PBS (pH 7.4). Brains were then removed, and kept in the same solution for at least 24h. Then the brains—from the rostral side of the cortex to the cerebellum—were sunk in 30% sucrose in PBS, cryosectioned (20 μm), dried and stained with thionin for histological evaluation of the brain infarct volume. Eight sections at the levels of: 3.3;+2.8;+1.8; +0.8; −0.4;−1.4; −2.2; and −3.4 from Bregma were measured (Swanson, Rat Brain Atlas, 1992). Sections were captured by a CCD camera (V-tech MP-470) and image analyzed (Scion image 1.62A). Infarct size was determined from the series of the 8 sections by either calculation of the infarct volume (mm3) by summing the series of mean lesion areas of two adjacent sections multiplied by the distance between them or calculation of the mean infarct size as percentage of the contralateral hemisphere size; calculation of the mean of the surviving ipsilateral side as percentage of the contralateral hemisphere size; calculation of the mean ipsilateral side ventricle as percentage of the contralateral hemisphere ventricle.
• a. The infarct size was compared using ANOVA (analysis of variance) followed by Duncan's post hoc test. • b. The staircase task performance was evaluated after collecting the data and compressing it into four blocks of six trials: […]

[2] = 5 mg/kg, administered 3 hours following transient MCAo

SMILES: CCCCCCC(C)(C)c1cc(O)c2c(c1)OC(C)(C)[C@H]1CC=C(CO)CC21 (stereo partly drawn) [211,007-000, 1,1 dimethyl heptyl-(3S,4S)-7-hydroxy-Δ^6-tetrahydrocannabinol]
- NMDA receptor binding / affinity (in words) (NMDA receptor): competes with the binding of MK-801 to membranes
- Ki (NMDA receptor; rat forebrain membranes, read-out: inhibition constant (KI) of [3H]MK-801 binding): 11 ± 1.3 µM
- IC50 (NMDA receptor; rat forebrain membranes, read-out: mean IC50 of [3H]MK-801 binding (FIG. 2)): 10 µM
- inhibition at 10 µM [1]: 20%
- staircase contralateral performance, pellet consumption (in words) (transient MCAo in rats; 0.5 mg/kg): No improvement
- displaced pellets parameter (transient MCAo in rats; 5 mg/kg): improved performance

SMILES: CCCCCCC(C)(C)c1cc(O)c2c(c1)OC(C)(C)[C@H]1CC=C(Cn3cccn3)C[C@H]21 [211,220-000, (+)-(3S,4S)-6,6-Dimethyl-(1,1-dimethylheptyl)-1-hydroxy-9-(pyrazolomethyl)-6a,7,10,10a-tetrahydro-6H-dibenzo[b,d]pyran]
- NMDA receptor binding / affinity (in words) (NMDA receptor): relatively high affinity
- inhibition at 10 µM [1]: 24%
- displaced pellets parameter (transient MCAo in rats; 0.5 mg/kg): improved performance
- increase in pellet consumption, session 3 (transient MCAo in rats; 0.5 mg/kg, administered 3 hours following transient MCAo): 27%
- increase in pellet consumption, session 3 (transient MCAo in rats; 0.5 mg/kg, administered 6 hours following transient MCAo): 40%

SMILES: CCCCCCC(C)(C)c1cc(O)c2c(c1)OC(C)(C)C1CC=C(Cn3ccnc3)CC21.Cl (single isomer, unassigned; (+)) [211,095-000, (+)-(3S ,4S )-6,6-Dimethyl-(1,1-dimethylheptyl)-1-hydroxy-9-(imidazolomethyl)-6a,7,10,10a-tetrahydro-6H-dibenzo[b,d]pyran]
- NMDA receptor binding / affinity (in words) (NMDA receptor): relatively high affinity
- inhibition at 10 µM [1]: 34%
- staircase contralateral performance, pellet consumption (in words) (transient MCAo in rats; 0.5 mg/kg): moderately improved pellet consumption
- protection of infarct volume (histopathology) (transient MCAo in rats; 2.5 mg/kg): No protection
- staircase contralateral performance, pellet consumption (in words) (transient MCAo in rats; 2.5 mg/kg): moderately improved pellet consumption
- displaced pellets parameter (transient MCAo in rats; 5 mg/kg): improved performance
- staircase contralateral performance, pellet consumption (in words) (transient MCAo in rats; 5 mg/kg): robust improvement
- increase in pellet consumption, session 3 (transient MCAo in rats; [2]): 17%
- staircase contralateral performance, pellet consumption (in words) (transient MCAo in rats; 10 mg/kg): robust improvement

SMILES: CCCCCCC(C)(C)c1cc(O)c2c(c1)OC(C)(C)C1CC=C(CSc3ncc[nH]3)CC21 (single isomer, unassigned; (+)) [211,092-000]
- NMDA receptor binding / affinity (in words) (NMDA receptor): low affinity
- inhibition at 10 µM [1]: 86%
- increase in pellet consumption, session 3 (transient MCAo in rats; [2]): 58%
- increase in pellet consumption, session 3 (transient MCAo in rats; 5 mg/kg, administered 6 hours following transient MCAo): 30%
